Assay results: patent publication US10030002B2, “Coumarin derivative for detection of cysteine and process for the synthesis thereof” (COUNCIL OF SCIENTIFIC & INDUSTRIAL RESEARCH, priority 2015, dated 2018)

Assays:
[1] = TLC test strips coated with probe L
Method: The same strategy is further extended to detect Cys in blood plasma and the Cys released in an enzymatic reaction as well. […] The same methodology is further extended to detect the enzymatically generated Cys from NAC.
TLC test strips were prepared by coating 5 μM of 7-(diethylamino)-3-((E)-4-((E)-2-nitrovinyl)styryl)-2H-chromen-2-one solution in acetonitrile on silica TLC plates. 5 μl of Cys (1.0×10^−1M) in 10 mM aq.HEPES buffer (pH7) was added on it, dried and the visual as well as fluorescence colour changes were observed after 5 min. The same was repeated for Hcy and GSH as well. To detect Cys in blood plasma, 20 μl of blood plasma was diluted (10 μl plasma+10 μl buffer) was added on probe quoted TLC plate. Same methodology was repeated for enzymatic reaction on TLC plate by using 10 μl of NAC and amino acylase-1 enzyme.

amino acylase-1 = experiment: Detection of Cys generated enzymatically from NAC; format: biochemical
Source text: In another preferred embodiment, the detection of Cys generated in an enzymatic reaction is studied. N-acetyl-cysteine (NAC) is employed as substrate and amino acylase-1 as an enzyme. N-acetyl-cysteine, an acetylated form of Cys, a well known pro-drug used as a cysteine supplement in treatment of glutathione replenishment, acetaminophen over dose, HIV patients etc. NAC supplement releases the Cys inside the cells. […] Amino acylases are a class of enzymes which specifically hydrolyses the N-acetylated amino acids to release the free amino acids. There are many amino acylases known for de-acetylation of acetylated amino acids, among them Amino acylase-1 is well known for its ability to hydrolyse acetylated cysteine.
Cipla made effervescent tablets of N-Acetyl-Cysteine were purchased from commercially available sources. Based on the quantity of NAC present in the tablet, 1.0×10^−1M tablet solution was prepared in 10 mM aq.
HEPES buffer solution (pH7). Enzyme solution was prepared according to the requirement by dissolving 1 mg/ml in 10 mM aq.HEPES buffer solution (pH7). A fixed concentration of NAC (200 equiv.) was added to the 10 μM probe in HEPES:CH3CN (9:1, v/v). Since 1 mg of solid enzyme contains 3301 units of protein and 1 unit can hydrolyse 1 μM of substrate, accordingly enzyme concentration was varied with respect to the substrate concentration.
10 μM of 7-(diethylamino)-3-((E)-4-((E)-2-nitrovinyl)styryl)-2H-chromen-2-one is treated with 200 equiv. of NAC and different concentration of enzyme (0-2000 units) was added and the resulting solution was incubated at 37° C. for the time period ranging from 45 to 50 mins. Initially there is no fluorescence because NAC cannot bind to probe and fluorescence is turned on gradually with time, which indicates the hydrolysis of NAC by Amino acylase-1 to release of Cys. Fluorescence intensity increases with the increase in concentration of enzyme (0 to 2000 units) as more and more amounts of Cys was released from NAC by the enzymatic activity (FIG. 6). […]

[2] = Comparison of Formula (L) with prior art coumarin derivatives
Source text: In still yet another embodiment, the present invention provides the comparison study of said coumarin derivatives of Formula (L) with previous prior arts coumarin derivative.

[3] = Time dependent fluorescence response of probe L with biothiols
Method: Time dependent fluorescence response of probe L or compound of Formula (L) is carried out with 200 equiv of Cys. […] (FIG. 4).

[4] = Fluorescence response of probe L to amino acids and Cys in HEPES:CH3CN (9:1), pH 7
Source text: In the absence of Cys, probe L is almost non fluorescent (Φf=0.06), upon addition of Cys (0-1000 equiv.), fluorescence intensity is increased remarkably up to 7 fold with an emission band centered at 524 nm (λExt=445 nm) (FIG. 2B). […] The quantum yield of probe after the addition of Cys increases (Φf=0.32) with respect to fluorescein (Φf=0.92). The fluorescence turn on response of the probe upon addition of Cys is due to the formation of 1,4 conjugate addition product, which blocks the PET quenching by nitro olefin and also ICT process from diethylamino to nitro olefin unit. The results were in well agreement with our proposed hypothesis. […] The fluorescence intensities of the probe at 524 nm show a good linear relationship with the concentration of Cys between 0 to 1000 μM. The detection limit of Cys is determined as 23.65 nM (23.65×10^−9) based on S/N=3. (FIG. 8)
Cys being a low pKa protein thiol, at neutral pH, the thiolate/thiol ratio is higher for Cys than for Hcy and GSH, which results in greater reactivity of Cys with the probe. This could be the reason for getting selectivity to Cys over Hcy and GSH at pH 7. Also pH 7, being neutral, much suitable for biological studies.
(§1) 5×10^−3M stock solution of 7-(diethylamino)-3-((E)-4-((E)-2-nitrovinyl)styryl)-2H-chromen-2-one was prepared in CH3CN and the same solution was used for all the studies after appropriate dilution. Unless and otherwise mentioned, 10 mM and pH 7 solution of aq. HEPES buffer was used for all spectroscopic studies. All amino acid solutions of 1.0×10^−1M were prepared in HEPES buffer (pH 7). For spectroscopic measurements, stock solution of the probe was further diluted by using HEPES:CH3CN (9:1) mixture and the effective final concentration was made as 10 μM. All luminescence measurements were done using λext=445 nm with an emission slit width of 2 nm. The fluorescence quantum yield was determined according to literature method using fluorescein (in 0.1M NaOH) as reference (Φf=0.92).

whey protein = experiment: Detection of cysteine in whey protein from raw milk; settings: L 10 μM, whey 500 μl, NAC 0-500 μl
Source text: Suitability of this reagent for specific recognition and estimation of Cys-residues present in natural milk proteins was also explored. For this study whey protein was isolated from milk. Initially some fluorescence was observed, which is due to the presence of free Cys. Then NAC tablets are used to reduce the disulfides present in whey. […] So, this reagent could be used as protein labeling agent to specifically label the Cys present in proteins.
Raw milk was subjected to fermentation and the liquid whey which was settled above after fermentation process was separated by filtration. A varying amount of whey ranging from 500 μl was added to Probe L (7-(diethylamino)-3-((E)-4-((E)-2-nitrovinyl)styryl)-2H-chromen-2-one) (10 μM) in HEPES:ACN at pH 7. Varying concentrations of N-Acetyl Cysteine (0-500 μl) was added to each of the above solution in order to hydrolyse the bound Cysteine present in whey protein (NAC solution was prepared by dissolving NAC tablets in buffer as mentioned in the enzymatic study). Luminescence changes were recorded after 45-50 minutes of incubation at room temperature. The remaining derivatives of probe L may give similar kind of response.

[5] = UV-Vis absorption response of probe L to amino acids and Cys
Source text: With the addition of Cys (0-100 equiv.), absorption band at 468 nm gradually decreases and a new band appeared at 438 nm with a visible colour change from red to green (FIG. 1B). A hypsochromic shift (˜30 nm) with three well defined isosbestic points are observed at 445 nm, 372 nm and 325 nm. This Cys-induced hypsochromic shift indicates the suppression of ICT process from donor diethylamino unit to acceptor nitroalkene unit.
as §1

[6] = thiol pKa; cited from earlier work
[7] = cited from earlier work
[8] = HEPES:CH3CN (9:1), pH 7, with respect to fluorescein

For CCN(CC)c1ccc2cc(/C=C/c3ccc(/C=C/[N+](=O)[O-])cc3)c(=O)oc2c1 [L, 7-(diethylamino)-3-((E)-4-((E)-2-nitrovinyl)styryl)-2H-chromen-2-one], the “response of probe coated TLC plates to Hcy and GSH” value [1] was “does not give any observable visible as well as fluorescence changes”, the “colour change of probe coated TLC plates with Cys” value ([1]; 5 μM L on silica TLC, 365 nm UV lamp) was “changes from red to yellowish green” and the “fluorescence after addition of aminoacylase-1” value (amino acylase-1; L 10 μM, NAC 200 equiv., enzyme 0-2000 units, 37° C.) was “fluorescent intensity gradually increases”. For the same molecule, the “emission at 520 nm with NAC in absence of aminoacylase-1” value (amino acylase-1; L 10 μM, NAC 200 equiv., pH 7) was “no change in emission intensity was observed”, the “reaction time at room temperature” value (amino acylase-1; room temperature) was “more than 90 min” and the “sensitivity of Cys detection (comparison)” value [2] was “in nanomolar range”. The “time to completion of the reaction with Cys” value ([3]; 200 equiv of Cys) was 25 min, the “time dependent fluorescence with Hcy and GSH” value ([3]; 200 equiv. each) was “no significant changes in the fluorescence observed” and the “linear range of fluorescence intensity at 524 nm with concentration of Cys” value [4] was 0 to 1000 µM. For the same molecule, the pH dependent selectivity ([4]; Cys, Hcy and GSH with increasing pH) was “selectivity of probe to Cys at pH 7”, the “fluorescence quantum yield (Φf) after the addition of Cys” value [4, 8] was 0.32 and the “fluorescence quantum yield (Φf) in the absence of Cys” value [4, 8] was 0.06. For the same molecule, the “fluorescence intensity increase upon addition of Cys” value ([4]; L 10 μM, Cys 0-1000 equiv., emission 524 nm, λExt=445 nm) was “up to 7 fold”, the “fluorescence response to amino acids (selectivity)” value ([4]; L 10 μM, amino acids 200 equiv., pH 7) was “Only Cys gives an enhancement in the fluorescence” and the “detection limit of Cys” value ([4]; based on S/N=3, fluorescence at 524 nm) was 23.65 nM. The “fluorescence response to Hcy and GSH” value ([4]; identical conditions, pH 7) was “does not give any significant changes in fluorescence”, the “fluorescence with whey and NAC” value (whey protein) was “fluorescence intensity of L gradually increases” and the “hypsochromic shift of the absorption band upon addition of Cys” value ([5]; Cys 0-100 equiv., 468 nm to 438 nm) was ~30 nm. For the same molecule, the “absorption response to amino acids (selectivity)” value ([5]; L 10 μM, amino acids 100 equiv., pH 7) was “Only Cys gives an observable change in absorption spectra”.

For N[C@@H](CCC(=O)N[C@@H](CS)C(=O)NCC(=O)O)C(=O)O [GSH, Glutathione], the pKa [6] is given as 9.5.

For CCN(CC)c1ccc2cc(/C=C/[N+](=O)[O-])c(=O)oc2c1, the “sensitivity or specificity of prior art probe (comparison)” value [7] is given as “Not specific to Cys”.

In the case of O=C(/C=C/c1ccc2ccccc2n1)c1cc2cc3c4c(c2oc1=O)CCCN4CCC3, the “sensitivity or specificity of prior art probe (comparison)” value [7] is listed as “Detect only micromolar range”.

For N[C@@H](CCS)C(=O)O [Hcy, Homocysteine], the pKa [6] is given as 10.0.
